Source: patent EP4722207A1, “OXOISOINDOLINYL-SUBSTITUTED TETRAHYDROPYRIMIDINEDIONE DERIVATIVE AND USE THEREOF” (Gluetacs Therapeutics (Shanghai) Co., Ltd., priority 2023, dated 2024)

Assays:
WEE1 = molecular target: T1, WEE1 (Homo sapiens, UniProt P30291+Q96SW2); assay: Western-blot assay, substrate protein degradation in hPBMCs: WEE1; format: cell-based; details: for substrate protein remaining % WEE1: 24 hours of compound treatment, 50 nM and 500 nM; for WEE1 substrate protein remaining %: compounds at 50 nM and 500 nM, 24 hours
T1 construct: effects of the compounds of the present disclosure on the expression of target proteins in cells; endogenous in cells; host or cells: human PBMCs (hPBMCs)
T1 sequence (P30291 whole entry): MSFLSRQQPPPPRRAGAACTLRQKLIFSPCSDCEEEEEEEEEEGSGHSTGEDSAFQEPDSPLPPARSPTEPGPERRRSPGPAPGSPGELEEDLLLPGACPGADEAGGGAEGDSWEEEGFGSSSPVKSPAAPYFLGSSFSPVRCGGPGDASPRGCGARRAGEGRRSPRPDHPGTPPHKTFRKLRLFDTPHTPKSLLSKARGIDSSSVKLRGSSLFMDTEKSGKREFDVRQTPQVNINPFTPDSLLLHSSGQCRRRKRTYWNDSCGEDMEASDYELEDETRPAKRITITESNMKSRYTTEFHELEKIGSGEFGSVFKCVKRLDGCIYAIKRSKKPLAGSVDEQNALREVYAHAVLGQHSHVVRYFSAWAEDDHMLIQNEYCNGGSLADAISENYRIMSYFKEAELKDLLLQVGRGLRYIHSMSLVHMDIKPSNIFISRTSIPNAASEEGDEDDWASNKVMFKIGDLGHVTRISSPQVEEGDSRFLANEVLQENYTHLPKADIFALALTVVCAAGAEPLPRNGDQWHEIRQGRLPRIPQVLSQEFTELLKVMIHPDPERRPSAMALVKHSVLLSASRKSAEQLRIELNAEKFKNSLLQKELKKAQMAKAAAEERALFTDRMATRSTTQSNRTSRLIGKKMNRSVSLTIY
T1 sequence (Q96SW2 whole entry): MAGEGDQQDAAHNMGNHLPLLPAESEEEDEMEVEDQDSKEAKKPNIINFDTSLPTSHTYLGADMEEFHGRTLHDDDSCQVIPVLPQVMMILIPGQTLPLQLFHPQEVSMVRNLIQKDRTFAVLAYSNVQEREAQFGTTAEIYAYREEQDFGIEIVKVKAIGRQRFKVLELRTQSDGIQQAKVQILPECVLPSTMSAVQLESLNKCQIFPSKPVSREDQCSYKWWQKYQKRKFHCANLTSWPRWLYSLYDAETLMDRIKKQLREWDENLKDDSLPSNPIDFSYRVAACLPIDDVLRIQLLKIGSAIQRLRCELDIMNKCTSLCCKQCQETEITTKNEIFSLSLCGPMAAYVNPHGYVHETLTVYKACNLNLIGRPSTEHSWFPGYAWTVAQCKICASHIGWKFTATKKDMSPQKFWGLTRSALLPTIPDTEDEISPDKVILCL
T1 sequence (Q16531 whole entry partner): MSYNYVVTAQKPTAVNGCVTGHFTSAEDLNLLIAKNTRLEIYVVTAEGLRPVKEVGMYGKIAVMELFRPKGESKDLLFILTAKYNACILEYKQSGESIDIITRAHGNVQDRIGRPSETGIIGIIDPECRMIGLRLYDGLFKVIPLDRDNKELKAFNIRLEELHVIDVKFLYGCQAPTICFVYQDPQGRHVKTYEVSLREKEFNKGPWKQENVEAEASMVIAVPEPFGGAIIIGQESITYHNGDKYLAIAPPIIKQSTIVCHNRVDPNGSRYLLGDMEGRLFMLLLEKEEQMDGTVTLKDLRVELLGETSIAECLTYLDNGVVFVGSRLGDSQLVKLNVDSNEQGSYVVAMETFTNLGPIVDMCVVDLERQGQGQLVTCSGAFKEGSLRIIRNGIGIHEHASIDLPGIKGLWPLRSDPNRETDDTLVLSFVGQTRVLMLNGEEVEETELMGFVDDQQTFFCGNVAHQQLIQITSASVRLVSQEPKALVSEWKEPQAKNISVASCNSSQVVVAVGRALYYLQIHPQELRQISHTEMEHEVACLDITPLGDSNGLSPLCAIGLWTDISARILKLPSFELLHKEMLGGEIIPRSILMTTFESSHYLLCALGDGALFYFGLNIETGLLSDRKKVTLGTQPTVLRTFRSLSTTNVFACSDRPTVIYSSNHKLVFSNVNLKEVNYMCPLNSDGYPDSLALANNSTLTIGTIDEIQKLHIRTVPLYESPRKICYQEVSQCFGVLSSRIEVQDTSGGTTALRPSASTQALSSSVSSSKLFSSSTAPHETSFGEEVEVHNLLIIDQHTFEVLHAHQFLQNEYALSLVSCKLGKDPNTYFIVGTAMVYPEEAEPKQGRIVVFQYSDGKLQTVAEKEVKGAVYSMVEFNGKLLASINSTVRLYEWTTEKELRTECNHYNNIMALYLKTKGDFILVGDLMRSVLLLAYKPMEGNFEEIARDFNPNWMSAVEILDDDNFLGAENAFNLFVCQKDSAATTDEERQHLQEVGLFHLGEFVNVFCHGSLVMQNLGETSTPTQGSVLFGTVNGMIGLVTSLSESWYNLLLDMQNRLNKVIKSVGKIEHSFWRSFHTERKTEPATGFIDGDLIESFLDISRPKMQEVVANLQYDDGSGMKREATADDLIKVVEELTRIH

CK1α = molecular target: T2, CK1α (Homo sapiens, UniProt P48729+Q96SW2); assay: Western-blot assay, substrate protein degradation in hPBMCs: CK1α; format: cell-based; details: for substrate protein remaining % CK1α: 24 hours of compound treatment, 50 nM and 500 nM; for CK1α substrate protein remaining %: compounds at 50 nM and 500 nM, 24 hours
T2 construct: effects of the compounds of the present disclosure on the expression of target proteins in cells; endogenous in cells; host or cells: human PBMCs (hPBMCs)
T2 sequence (P48729 whole entry): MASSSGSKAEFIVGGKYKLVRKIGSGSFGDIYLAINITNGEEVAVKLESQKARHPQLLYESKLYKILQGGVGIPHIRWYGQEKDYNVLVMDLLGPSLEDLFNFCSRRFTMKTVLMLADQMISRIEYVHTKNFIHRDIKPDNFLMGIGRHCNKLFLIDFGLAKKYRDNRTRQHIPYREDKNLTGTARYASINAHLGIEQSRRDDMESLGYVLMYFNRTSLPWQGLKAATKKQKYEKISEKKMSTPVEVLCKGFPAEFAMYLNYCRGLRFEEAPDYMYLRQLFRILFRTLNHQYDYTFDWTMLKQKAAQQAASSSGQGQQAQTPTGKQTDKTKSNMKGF
T2 sequence (Q96SW2 whole entry): as the sequence (Q96SW2 whole entry) above
T2 sequence (Q16531 whole entry partner): as the sequence (Q16531 whole entry partner) above

IKZF3 = molecular target: T3, IKZF3 (Homo sapiens, UniProt Q96SW2+Q9UKT9); assay: Western-blot assay, substrate protein degradation in hPBMCs: IKZF3; format: cell-based; details: for substrate protein remaining % IKZF3: 24 hours of compound treatment, 50 nM and 500 nM; for IKZF3 substrate protein remaining %: compounds at 50 nM and 500 nM, 24 hours
T3 construct: effects of the compounds of the present disclosure on the expression of target proteins in cells; endogenous in cells; host or cells: human PBMCs (hPBMCs)
T3 sequence (Q9UKT9 whole entry): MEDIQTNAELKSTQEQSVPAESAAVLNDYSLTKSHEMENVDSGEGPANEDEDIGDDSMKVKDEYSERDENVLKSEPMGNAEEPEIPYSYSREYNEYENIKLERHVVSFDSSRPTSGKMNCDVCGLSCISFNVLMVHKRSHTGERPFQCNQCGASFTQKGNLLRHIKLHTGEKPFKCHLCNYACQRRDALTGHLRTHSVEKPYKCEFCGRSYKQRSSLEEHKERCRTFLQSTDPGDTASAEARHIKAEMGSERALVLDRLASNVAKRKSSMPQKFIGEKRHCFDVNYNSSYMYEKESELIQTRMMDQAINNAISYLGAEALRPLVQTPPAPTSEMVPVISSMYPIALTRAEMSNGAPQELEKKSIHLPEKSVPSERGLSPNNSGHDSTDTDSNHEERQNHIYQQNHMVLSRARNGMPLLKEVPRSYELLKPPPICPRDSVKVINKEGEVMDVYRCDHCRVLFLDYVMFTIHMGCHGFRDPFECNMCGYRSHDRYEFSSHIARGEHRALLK
T3 sequence (Q96SW2 whole entry): as the sequence (Q96SW2 whole entry) above
T3 sequence (Q16531 whole entry partner): as the sequence (Q16531 whole entry partner) above

GSPT1 = molecular target: T4, GSPT1 (Homo sapiens, UniProt P15170+Q96SW2); assay: Western-blot assay, substrate protein degradation in hPBMCs: GSPT1; format: cell-based; details: for substrate protein remaining % GSPT1: 24 hours of compound treatment, 50 nM and 500 nM; for GSPT1 substrate protein remaining %: compounds at 50 nM and 500 nM, 24 hours
T4 construct: effects of the compounds of the present disclosure on the expression of target proteins in cells; endogenous in cells; host or cells: human PBMCs (hPBMCs)
T4 sequence (P15170 whole entry): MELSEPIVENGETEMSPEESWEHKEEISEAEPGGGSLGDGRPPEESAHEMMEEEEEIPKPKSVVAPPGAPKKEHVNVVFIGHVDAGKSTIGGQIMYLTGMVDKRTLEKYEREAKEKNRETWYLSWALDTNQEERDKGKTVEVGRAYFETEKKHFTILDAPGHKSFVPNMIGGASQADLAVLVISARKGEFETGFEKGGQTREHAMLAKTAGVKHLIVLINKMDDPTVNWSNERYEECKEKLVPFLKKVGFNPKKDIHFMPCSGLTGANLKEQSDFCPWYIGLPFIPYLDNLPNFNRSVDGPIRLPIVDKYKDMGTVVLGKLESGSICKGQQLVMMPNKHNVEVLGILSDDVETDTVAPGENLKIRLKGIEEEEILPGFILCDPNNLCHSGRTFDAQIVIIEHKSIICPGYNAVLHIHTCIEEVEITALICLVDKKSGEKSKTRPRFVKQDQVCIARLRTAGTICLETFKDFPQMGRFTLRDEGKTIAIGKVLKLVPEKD
T4 sequence (Q96SW2 whole entry): as the sequence (Q96SW2 whole entry) above
T4 sequence (Q16531 whole entry partner): as the sequence (Q16531 whole entry partner) above

MV-4-11 = assay: Cell viability assay (CellTiter-Meiluncell Luminescent), tumor cell proliferation, MV-4-11; details: Homo sapiens, MV4-11, 96 h; for inhibition at 0.01 µM: read-out: Inhibition Rate at 10 nM (%); for inhibition at 0.5 µM: read-out: Inhibition Rate at 500 nM (%); for IC50: read-out: inhibitory activity (IC50, nM) against tumor cells proliferation, MV-4-11
IKZF1 = molecular target: T5, IKZF1 (Homo sapiens, UniProt Q13422+Q96SW2); assay: Western-blot assay, substrate protein degradation in hPBMCs: IKZF1; format: cell-based; details: for substrate protein remaining % IKZF1: 24 hours of compound treatment, 50 nM and 500 nM; for IKZF1 substrate protein remaining %: compounds at 50 nM and 500 nM, 24 hours
T5 construct: effects of the compounds of the present disclosure on the expression of target proteins in cells; endogenous in cells; host or cells: human PBMCs (hPBMCs)
T5 sequence (Q13422 whole entry): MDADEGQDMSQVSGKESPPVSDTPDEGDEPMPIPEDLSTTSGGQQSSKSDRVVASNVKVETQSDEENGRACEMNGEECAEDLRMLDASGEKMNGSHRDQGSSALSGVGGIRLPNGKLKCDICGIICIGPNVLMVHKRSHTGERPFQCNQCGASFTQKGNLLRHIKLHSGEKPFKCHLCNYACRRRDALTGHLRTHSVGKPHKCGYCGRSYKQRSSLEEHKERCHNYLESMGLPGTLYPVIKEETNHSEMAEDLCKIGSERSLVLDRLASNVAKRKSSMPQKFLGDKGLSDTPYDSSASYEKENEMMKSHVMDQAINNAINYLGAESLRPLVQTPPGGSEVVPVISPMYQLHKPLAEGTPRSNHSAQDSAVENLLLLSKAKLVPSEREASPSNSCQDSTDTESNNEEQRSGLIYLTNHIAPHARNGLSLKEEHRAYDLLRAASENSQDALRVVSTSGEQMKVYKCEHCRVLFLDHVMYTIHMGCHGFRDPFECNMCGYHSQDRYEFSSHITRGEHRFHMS
T5 sequence (Q96SW2 whole entry): as the sequence (Q96SW2 whole entry) above
T5 sequence (Q16531 whole entry partner): as the sequence (Q16531 whole entry partner) above

H292 = assay: Cell viability assay (CellTiter-Meiluncell Luminescent), tumor cell proliferation, H292; details: Homo sapiens, NCI-H292, 96 h; for inhibition at 0.01 µM: read-out: Inhibition Rate at 10 nM (%); for inhibition at 0.5 µM: read-out: Inhibition Rate at 500 nM (%)
IKZF2 = molecular target: T6, IKZF2 (Homo sapiens, UniProt Q96SW2+Q9UKS7); assay: Western-blot assay, substrate protein degradation in hPBMCs: IKZF2; format: cell-based; details: for substrate protein remaining % IKZF2: 24 hours of compound treatment, 50 nM and 500 nM; for IKZF2 substrate protein remaining %: compounds at 50 nM and 500 nM, 24 hours
T6 construct: effects of the compounds of the present disclosure on the expression of target proteins in cells; endogenous in cells; host or cells: human PBMCs (hPBMCs)

Row | Structure (SMILES) | substrate protein remaining % WEE1 (WEE1) | substrate protein remaining % CK1α (CK1α) | substrate protein remaining % IKZF3 (IKZF3) | substrate protein remaining % GSPT1 (GSPT1) | inhibition at 0.01 µM (MV-4-11) [%] | inhibition at 0.5 µM (MV-4-11) [%] | substrate protein remaining % IKZF1 (IKZF1) | inhibition at 0.01 µM (H292) [%] | inhibition at 0.5 µM (H292) [%] | substrate protein remaining % IKZF2 (IKZF2) | WEE1 substrate protein remaining % (WEE1) | CK1α substrate protein remaining % (CK1α) | IKZF3 substrate protein remaining % (IKZF3) | GSPT1 substrate protein remaining % (GSPT1) | IC50 (MV-4-11) [nM] | IKZF1 substrate protein remaining % (IKZF1) | IKZF2 substrate protein remaining % (IKZF2)
1 | Cc1nc(N2CCN(Cc3ccc4c(c3)CN(N3CCC(=O)NC3=O)C4=O)CC2)c2c3c(sc2n1)CCCC3 [GT-08068, 1-(5-((4-(2-methyl-5,6,7,8-tetrahydrobenzo[4,5]thieno[2,3-d]pyrimidin-4-yl)piperazin-1-yl)methyl)-1-oxoisoindolin-2-yl)dihydropyrimidine-2,4(1H,3H)-dione] | B (80%< substrate protein remaining %≤ 100%) | A (0% ≤ substrate protein remaining % ≤ 80%) | B (80%< substrate protein remaining %≤ 100%) | B (80%< substrate protein remaining %≤ 100%) | 18 to 25 | 18 to 25 | B (80%< substrate protein remaining %≤ 100%) | 20 to 40 | 20 to 40 | A (0% ≤ substrate protein remaining % ≤ 80%) | – | – | – | – | – | – | –
2 | Cc1nc(N2CCN(Cc3ccc4c(c3)CN(N3CCC(=O)NC3=O)C4=O)CC2)c2ccsc2n1 [GT-08067, 1-(5-((4-(2-methylthieno[2,3-d]pyrimidin-4-yl)piperazin-1-yl)methyl)-1-oxoisoindolin-2-yl)dihydropyrimidine-2,4(1H,3H)-dione] | B (80%< substrate protein remaining %≤ 100%) | B (80%< substrate protein remaining %≤ 100%) | B (80%< substrate protein remaining %≤ 100%) | B (80%< substrate protein remaining %≤ 100%) | 60 to 80 | 40 to 60 | B (80%< substrate protein remaining %≤ 100%) | 20 to 40 | 20 to 40 | A (0% ≤ substrate protein remaining % ≤ 80%) | – | – | – | – | – | – | –
3 | O=C1CCN(N2Cc3cc(CN4CCC(c5ccccc5)CC4)ccc3C2=O)C(=O)N1 [GT-06884, 1-(1-oxo-5-((4-phenylpiperidin-1-yl)methyl)isoindolin-2-yl)dihydropyrimidine-2,4(1H,3H)-dione] | – | – | – | – | – | – | – | – | – | – | B ("B" is defined as 80%< substrate protein remaining %≤ 100%) | B ("B" is defined as 80%< substrate protein remaining %≤ 100%) | B ("B" is defined as 80%< substrate protein remaining %≤ 100%) | A ("A" is defined as 0% ≤ substrate protein remaining % ≤ 80%) | 500 to 1000 | B ("B" is defined as 80%< substrate protein remaining %≤ 100%) | B ("B" is defined as 80%< substrate protein remaining %≤ 100%)
4 | Cc1cc2c(C3CCN(Cc4ccc5c(c4)C(=O)N(N4CCC(=O)NC4=O)C5=O)CC3)ncnc2s1 [GT-08107, 2-(2,4-dioxotetrahydropyrimidin-1(2H)-yl)-5-((4-(6-methylthieno[2,3-d]pyrimidin-4-yl)piperidin-1-yl)methyl)isoindoline-1,3-dione] | A (0% ≤ substrate protein remaining % ≤ 80%) | A (0% ≤ substrate protein remaining % ≤ 80%) | A (0% ≤ substrate protein remaining % ≤ 80%) | A (0% ≤ substrate protein remaining % ≤ 80%) | 30 to 40 | 40 to 60 | A (0% ≤ substrate protein remaining % ≤ 80%) | 5 to 10 | 10 to 15 | A (0% ≤ substrate protein remaining % ≤ 80%) | – | – | – | – | – | – | –
5 | O=C1CCN(N2Cc3cc(CN4CCN(c5ccccc5Br)CC4)ccc3C2=O)C(=O)N1 [GT-06766, 1-(5-((4-(2-bromophenyl)piperazin-1-yl)methyl)-1-oxoisoindolin-2-yl)dihydropyrimidine-2,4(1H,3H)-dione] | – | – | – | – | – | – | – | – | – | – | A ("A" is defined as 0% ≤ substrate protein remaining % ≤ 80%) | A ("A" is defined as 0% ≤ substrate protein remaining % ≤ 80%) | A ("A" is defined as 0% ≤ substrate protein remaining % ≤ 80%) | A ("A" is defined as 0% ≤ substrate protein remaining % ≤ 80%) | 500 to 1000 | A ("A" is defined as 0% ≤ substrate protein remaining % ≤ 80%) | A ("A" is defined as 0% ≤ substrate protein remaining % ≤ 80%)
6 | O=C1CCN(N2Cc3cc(CN4CCN(c5ncnc6sc7c(c56)CCCC7)CC4)ccc3C2=O)C(=O)N1 [GT-08077, 1-(1-oxo-5-((4-(5,6,7,8-tetrahydrobenzo[4,5]thieno[2,3-d]pyrimidin-4-yl)piperazin-1-yl)methyl)isoindolin-2-yl)dihydropyrimidine-2,4(1H,3H)-dione] | B (80%< substrate protein remaining %≤ 100%) | A (0% ≤ substrate protein remaining % ≤ 80%) | B (80%< substrate protein remaining %≤ 100%) | A (0% ≤ substrate protein remaining % ≤ 80%) | 25 to 30 | 25 to 30 | B (80%< substrate protein remaining %≤ 100%) | – | – | B (80%< substrate protein remaining %≤ 100%) | – | – | – | – | – | – | –
7 | O=C1CCN(N2Cc3cc(CN4CCN(c5cccc(F)c5F)CC4)ccc3C2=O)C(=O)N1 [GT-06777, 1-(5-((4-(2,3-difluorophenyl)piperazin-1-yl)methyl)-1-oxoisoindolin-2-yl)dihydropyrimidine-2,4(1H,3H)-dione] | – | – | – | – | – | – | – | – | – | – | A ("A" is defined as 0% ≤ substrate protein remaining % ≤ 80%) | A ("A" is defined as 0% ≤ substrate protein remaining % ≤ 80%) | B ("B" is defined as 80%< substrate protein remaining %≤ 100%) | A ("A" is defined as 0% ≤ substrate protein remaining % ≤ 80%) | 300 to 500 | B ("B" is defined as 80%< substrate protein remaining %≤ 100%) | A ("A" is defined as 0% ≤ substrate protein remaining % ≤ 80%)
8 | O=C1CCN(N2Cc3cc(CN4CCC(c5cccc(C(F)(F)F)c5)CC4)ccc3C2=O)C(=O)N1 [GT-06892, 1-(1-oxo-5-((4-(3-(trifluoromethyl)phenyl)piperidin-1-yl)methyl)isoindolin-2-yl)dihydropyrimidine-2,4(1H,3H)-dione] | – | – | – | – | – | – | – | – | – | – | B ("B" is defined as 80%< substrate protein remaining %≤ 100%) | B ("B" is defined as 80%< substrate protein remaining %≤ 100%) | B ("B" is defined as 80%< substrate protein remaining %≤ 100%) | A ("A" is defined as 0% ≤ substrate protein remaining % ≤ 80%) | 500 to 1000 | A ("A" is defined as 0% ≤ substrate protein remaining % ≤ 80%) | A ("A" is defined as 0% ≤ substrate protein remaining % ≤ 80%)
9 | O=C1CCN(N2Cc3cc(CN4CCN(c5cc(Cl)ccc5Cl)CC4)ccc3C2=O)C(=O)N1 [GT-06773, 1-(5-((4-(2,5-dichlorophenyl)piperazin-1-yl)methyl)-1-oxoisoindolin-2-yl)dihydropyrimidine-2,4(1H,3H)-dione] | – | – | – | – | – | – | – | – | – | – | A ("A" is defined as 0% ≤ substrate protein remaining % ≤ 80%) | A ("A" is defined as 0% ≤ substrate protein remaining % ≤ 80%) | A ("A" is defined as 0% ≤ substrate protein remaining % ≤ 80%) | A ("A" is defined as 0% ≤ substrate protein remaining % ≤ 80%) | 100 to 300 | B ("B" is defined as 80%< substrate protein remaining %≤ 100%) | A ("A" is defined as 0% ≤ substrate protein remaining % ≤ 80%)
